Values of other authors in patent US8367683B2, “Composition and method for treatment of warts” (Medcara, L.L.C., priority 2005, dated 2013).

Tested on: warts
Conditions: even with patient compliance; applied several times a day over weeks to months

Structure (SMILES): O=C(O)c1ccccc1O [salicylic acid]
- share of users who experience success: less than half
